# Laboratory results from patent US20260078335A1, “MICROBIAL ENHANCED COMPOSITIONS COMPRISING SURFACTANT BLENDS WHICH OVERCOME ANTAGONISTIC SURFACTANT INCOMPATIBILITY” (Stepan Company, priority 2023, published 2026).
# Where two headings read alike, the source gives them in different places.
# Columns and labels:
# Assay type in all cases: cell-based
# [1] = tested on: beneficial microorganisms; experiment: compatibility with beneficial microorganisms (description, test not specified); conditions: stated in the description, no test details
# Procedure: Incompatibility between a surfactant and a beneficial microorganism has been investigated in various ways, such as a standard Zone of Inhibition test, a standard agar plating test, or a standard resazurin (7-hydroxy-10-oxidophenoxazin-10-ium-3-one, sodium) (a blue fluorogenic dye) compatibility assay. In a Zone of Inhibition test, microorganisms are grown, cultured, diluted down to target levels, and then applied to a Petri dish containing agar nutrients. Test samples containing the surfactant of interest are diluted and loaded into an agar well created within the agar nutrient. The plates are incubated and microorganism growth is allowed to develop. The test sample diffuses through the agar and, if the surfactant in the test sample has an inhibitory effect on the microorganism, a lack of growth halo will be observed around the sample loaded well. This halo is referred to as the zone of inhibition. The larger the zone, the bigger the effect of inhibition. Major suitability limitations for non-antibiotics test samples for this test method are inherent large dilution of active, agar diffusion challenges, and nutrient media incompatibilities (neutralization, precipitation, etc). Although this method has been used in the medical field for antibiotics very successfully for decades, it has low suitability when testing non-antibiotic samples. In a standard agar plating test, test samples containing the surfactant of interest and microorganisms are exposed, diluted several orders of magnitude, and plated onto a nutritive agar that is incubated. After an incubation period appropriate for the species, the microorganism growth pattern is evaluated against appropriate controls. […] The test samples are incubated and then inspected for colorometric and fluorescence change. Test samples that are blue and have low fluorescence indicate no biological activity and incompatibility between the surfactant and the microorganism. Test samples that are pink and have high fluorescence indicate biological activity and compatibility of the surfactant with the microorganism. […]
# Bacillus spore blend = experiment: un-dyed EVOO test for germination and growth; conditions: 0.2 wt % active surfactant, 1×10^7 CFU/g Bacillus spore blend; 5 days shaking; FIG. 11
# Procedure: Replicate test compositions were prepared to evaluate the ability of the alkyl sarcosinate and alkyl betaine surfactant blend to overcome the antagonistic incompatibility between each surfactant individually and the bacterial spores. The formulation for testing comprised 20 wt % sodium lauroyl sarcosinate (30% actives), 32 wt % cetyl betaine (30% actives), 3.5 wt % of a commercially available Bacillus spore blend containing 100×10^9 CFU/g Bacillus spores, 4 wt % potassium nitrate, lactic acid (88% active) to adjust the pH to 5.5-6.0, and the remainder water. The test compositions were prepared by diluting the test formulation in water to 0.3% strength, and adding 2 wt % of 3.3 g/L Nutrient Mix (3 g/L Tryptic Soy broth and 0.3 g/L Yeast Extract). Germination and growth of bacterial spores were visually evaluated using an un-dyed EVOO test. […] Growth and biological activity of the microorganism is evident from haze that develops in the test composition, which can be visually detected. […]
# The test compositions were visually evaluated for germination and growth of the bacterial spores using the un-dyed EVOO test described above, except that the test compositions were photographed after 5 days of orbital-mixer shaking at setting “5”.
# pathogenic bacteria = experiment: preservative screening test, bacterial; conditions: reduction of live count
# Procedure: (§1) A preservative screening study was performed to determine a sufficient amount of preservative to include in selected MEC formulations to provide efficacy against pathogenic bacteria and fungi. The base formulations used in the study were a formulation similar to Composition A from Example 5, but without the spores, and a formulation similar to the Example 14 formulation, but without the spores and 2-phenoxyethanol. Test formulations were prepared by adding different preservatives in different amounts to the base formulations. Each test formulation was tested for efficacy against pathogenic organisms using a preservative screening test. For the screening test, microorganisms are grown separately according to industry standards described in PCPC Test Method M-7 “A Rapid Method for Preservation Testing of Water-Miscible Personal Care Products”, and combined as an inoculum challenge prior to introduction to the formulation test sample. The inoculum is added to each test formulation for predetermined time points, and after appropriate nutrition, the test formulations are evaluated for remaining live count. Reduction of live count is calculated against a control, and a sample showing sufficient percent reduction is accepted as an effectively preserved formulation. Table 4 provides the details of the preservative and amount used in each test formulation and the results of the screen testing.
# fungi = experiment: preservative screening test, fungal; conditions: reduction of live count
# Procedure: A preservative screening study was performed to determine a sufficient amount of preservative to include in selected MEC formulations to provide efficacy against pathogenic bacteria and fungi. […] Test formulations were prepared by adding different preservatives in different amounts to the base formulations. Each test formulation was tested for efficacy against pathogenic organisms using a preservative screening test. For the screening test, microorganisms are grown separately according to industry standards described in PCPC Test Method M-7 “A Rapid Method for Preservation Testing of Water-Miscible Personal Care Products”, and combined as an inoculum challenge prior to introduction to the formulation test sample. The inoculum is added to each test formulation for predetermined time points, and after appropriate nutrition, the test formulations are evaluated for remaining live count. Reduction of live count is calculated against a control, and a sample showing sufficient percent reduction is accepted as an effectively preserved formulation.
# [2] = tested on: pathogenic bacteria and fungi; experiment: preservative screening test, overall result
# Procedure: as §1
# Bacillus spores = tested on: Bacillus spores
# [3] = 1.5% active, base formula Example 5, pH 6.5-7.0
# [4] = 1.5% active, base formula Example 5, pH 9.0
# [5] = 1.5% active, base formula Example 14, pH 9.0
# [6] = 1.5% active, base formula Example 14, pH N/A
# [7] = resazurin assay, FIG. 1, inhibitory if composition with less than 1.0 g/L surfactant remains blue, no fluorescence
# [8] = 1.0% active, base formula Example 14, pH 5.0
compound,measurement,setting,value
O=C([O-])[C@H](O)[C@@H](O)[C@H](O)[C@H](O)CO.[Na+] [sodium gluconate],compatibility with the beneficial microorganisms,[1],compatible
O.O.O=C([O-])CC(O)(CC(=O)[O-])C(=O)[O-].[Na+].[Na+].[Na+] [sodium citrate dihydrate],compatibility with the beneficial microorganisms,[1],compatible
CCCCCCCCCCCCOS(=O)(=O)[O-].[Na+] [sodium lauryl sulfate],germination and growth of bacterial spores,Bacillus spore blend,strong inhibition
C=CCCCCCCCC(=O)N(C)C [STEPOSOL® MET-10U],compatibility with the beneficial microorganisms,[1],compatible
OCCOc1ccccc1 [2-phenoxyethanol],Bacterial 24 hours,pathogenic bacteria; [3],<50%
same,Bacterial 7 days,pathogenic bacteria; [3],<50%
same,Bacterial 24 hours,pathogenic bacteria; [4],99.4%
same,Bacterial 7 days,pathogenic bacteria; [4],>99.6%
same,Bacterial 24 hours,pathogenic bacteria; [5],98.4%
same,Bacterial 7 days,pathogenic bacteria; [5],>99.6%
same,Bacterial 7 days,pathogenic bacteria; [6],87.5%
same,Fungal 24 hours,fungi; [3],<50%
same,Fungal 7 days,fungi; [3],<50%
same,Fungal 24 hours,fungi; [4],29.3%
same,Fungal 7 days,fungi; [4],<50%
same,Fungal 24 hours,fungi; [5],75.0%
same,Fungal 7 days,fungi; [5],95.6%
same,Fungal 7 days,fungi; [6],<50%
same,efficacy against pathogenic bacteria and fungi,"[2]; 1.5 wt %, even at a pH of 9.0, either base formulation",not sufficient
sodium lauryl ether sulfate 2EO [SLES],compatibility with Bacillus spores,Bacillus spores; [7],inhibitory
lauramine oxide,germination and growth of bacterial spores,Bacillus spore blend,strong inhibition
O=C(O)c1ccccc1 [Benzoic Acid],Bacterial 24 hours,pathogenic bacteria; [8],>99.6%
same,Bacterial 7 days,pathogenic bacteria; [8],>99.6%
same,Fungal 24 hours,fungi; [8],99.6%
same,Fungal 7 days,fungi; [8],99.6%
same,Result,[2]; [8],Pass
lauryl alcohol with 8 moles of ethylene oxide [laureth 8EO],compatibility with Bacillus spores,Bacillus spores,inhibitory
cocoamidopropyl betaine [CAPB],compatibility with Bacillus spores,Bacillus spores; [7],inhibitory
